Source: patent publication US6472348B1, “Pyridone derivatives and herbicides” (Kumiai Chemical Industry Co., Ltd., priority 1996, dated 2002)

System: green foxtail (Se)
Experiment: Test Example 7: crop plant selectivity by upland field soil treatment (corn), herbicidal effects
Type: in vivo
Parameters: scale not given here
Conditions: dose 6.3 g ai/10a, 21st day after application
Description: (§1) (Test on Crop Plant Selectivity by Upland Field Soil Treatment)
(§2) In a plastic pot (surface area: 600 cm^2) filled with sand, corn (Ze), green foxtail (Se), pale smartweed (Po), slender amaranth (Am), common lambsquarters (Ch) and China jute (Ab) were sown and covered with soil. […] The plants were then cultured in a green house, and the evaluation of the herbicidal effects and phytotoxicity was conducted on the 21st day after the application in accordance with the standards as identified in Table 47.

| SMILES | Herbicidal effects Se |
| --- | --- |
| C#CCOc1cc(Cl)cc(F)c1-c1ccc(C(F)(F)F)n(C)c1=O [1′-4] | 5 |

System: China jute (Ab)
Experiment: as above
Type: in vivo
Parameters: scale not given here
Conditions: dose 6.3 g ai/10a, 21st day after application
Description: as §1, §2

| SMILES | Herbicidal effects Ab |
| --- | --- |
| C#CCOc1cc(Cl)cc(F)c1-c1ccc(C(F)(F)F)n(C)c1=O [1′-4] | 5 |

System: pale smartweed (Po)
Experiment: as above
Type: in vivo
Parameters: scale not given here
Conditions: dose 6.3 g ai/10a, 21st day after application
Description: as §1, §2

| SMILES | Herbicidal effects Po |
| --- | --- |
| C#CCOc1cc(Cl)cc(F)c1-c1ccc(C(F)(F)F)n(C)c1=O [1′-4] | 5 |

System: slender amaranth (Am)
Experiment: Test Example 4: crop plant selectivity by upland field soil treatment (cotton), herbicidal effects
Type: in vivo
Parameters: scale not given here
Conditions: dose 6.3 g ai/10 a, evaluated 21st day after application
In short: (§3)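 Cotton and weeds (incl. China jute, pale smartweed, slender amaranth) sown in sand-filled pots and covered with soil, then soil-treated. Grown in greenhouse; herbicidal effect and cotton phytotoxicity scored on day 21 after application against a rating standard.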

| SMILES | Herbicidal effects Am |
| --- | --- |
| C#CCOc1cc(Cl)cc(F)c1-c1ccc(C(F)(F)F)n(C)c1=O [1′-4] | 5 |

System: common lambsquarters (Ch)
Experiment: as above
Type: in vivo
Parameters: scale not given here
Conditions: dose 6.3 g ai/10 a, evaluated 21st day after application
In short: as §3

| SMILES | Herbicidal effects Ch |
| --- | --- |
| C#CCOc1cc(Cl)cc(F)c1-c1ccc(C(F)(F)F)n(C)c1=O [1′-4] | 5 |

System: green foxtail (Se)
Experiment: as above
Type: in vivo
Parameters: scale not given here
Conditions: dose 6.3 g ai/10 a, evaluated 21st day after application
In short: as §3

| SMILES | Herbicidal effects Se |
| --- | --- |
| C#CCOc1cc(Cl)cc(F)c1-c1ccc(C(F)(F)F)n(C)c1=O [1′-4] | 5 |

System: China jute (Ab)
Experiment: as above
Type: in vivo
Parameters: scale not given here
Conditions: dose 6.3 g ai/10 a, evaluated 21st day after application
In short: as §3

| SMILES | Herbicidal effects Ab |
| --- | --- |
| C#CCOc1cc(Cl)cc(F)c1-c1ccc(C(F)(F)F)n(C)c1=O [1′-4] | 5 |

System: pale smartweed (Po)
Experiment: as above
Type: in vivo
Parameters: scale not given here
Conditions: dose 6.3 g ai/10 a, evaluated 21st day after application
In short: as §3

| SMILES | Herbicidal effects Po |
| --- | --- |
| C#CCOc1cc(Cl)cc(F)c1-c1ccc(C(F)(F)F)n(C)c1=O [1′-4] | 5 |

System: barnyardgrass (Ec)
Experiment: Test Example 1: herbicidal effects by paddy field soil treatment;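 also: grade of growth control; 5 = at least 90%; 4 = 70 to 90%; 3 = 50 to 70%; 2 = 30 to 50%; 1 = 10 to 30%; 0 = under 10%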
Type: in vivo
Conditions: 100 g of the active ingredient per 10 ares, 21st day after the application, index 0-5 of Table 47
In short: (§4)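 Flooded paddy-soil pots (3 cm water) sown after puddling/leveling; treatment 100 g a.i./10 ares; greenhouse culture; herbicidal effect rated visually on a scoring scale at 21 d post-application.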

| SMILES | Herbicidal effects Ec |
| --- | --- |
| C#CCOc1cc(Cl)cc(F)c1-c1ccc(C(F)(F)F)n(C)c1=O [1′-4] | 5 |

System: bulrush (Sc)
Experiment: as above
Type: in vivo
Conditions: 100 g of the active ingredient per 10 ares, 21st day after the application, index 0-5 of Table 47
In short: as §4

| SMILES | Herbicidal effects Sc |
| --- | --- |
| C#CCOc1cc(Cl)cc(F)c1-c1ccc(C(F)(F)F)n(C)c1=O [1′-4] | 5 |

System: monochoria (Mo)
Experiment: as above
Type: in vivo
Conditions: 100 g of the active ingredient per 10 ares, 21st day after the application, index 0-5 of Table 47
In short: as §4

| SMILES | Herbicidal effects Mo |
| --- | --- |
| C#CCOc1cc(Cl)cc(F)c1-c1ccc(C(F)(F)F)n(C)c1=O [1′-4] | 5 |

System: cotton (Go)
Experiment: Test Example 4: crop plant selectivity by upland field soil treatment (cotton), phytotoxicity
Type: in vivo
Parameters: scale not given here
Conditions: dose 6.3 g ai/10 a, evaluated 21st day after application
In short: as §3

| SMILES | Phytotoxicity Go |
| --- | --- |
| C#CCOc1cc(Cl)cc(F)c1-c1ccc(C(F)(F)F)n(C)c1=O [1′-4] | 0 |

System: barnyardgrass (Ec)
Experiment: Test Example 2: herbicidal effects by upland field soil treatment;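 also: grade of growth control; 5 = at least 90%; 4 = 70 to 90%; 3 = 50 to 70%; 2 = 30 to 50%; 1 = 10 to 30%; 0 = under 10%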
Type: in vivo
Conditions: 100 g of the active ingredient per 10 ares, evaluated on the 21st day after application
Source text: (§5) (Test on Herbicidal Effects by Upland Field Soil Treatment)

| SMILES | Herbicidal effects Ec |
| --- | --- |
| C#CCOc1cc(Cl)cc(F)c1-c1ccc(C(F)(F)F)n(C)c1=O [1′-4] | 5 |

System: Digitaria ciliaris (Di)
Experiment: as above
Type: in vivo
Conditions: 100 g of the active ingredient per 10 ares, evaluated on the 21st day after application
Source text: as §5

| SMILES | Herbicidal effects Di |
| --- | --- |
| C#CCOc1cc(Cl)cc(F)c1-c1ccc(C(F)(F)F)n(C)c1=O [1′-4] | 5 |

System: slender amaranth (Am)
Experiment: as above
Type: in vivo
Conditions: 100 g of the active ingredient per 10 ares, evaluated on the 21st day after application
Source text: as §5

| SMILES | Herbicidal effects Am |
| --- | --- |
| C#CCOc1cc(Cl)cc(F)c1-c1ccc(C(F)(F)F)n(C)c1=O [1′-4] | 5 |

System: common lambsquarters (Ch)
Experiment: as above
Type: in vivo
Conditions: 100 g of the active ingredient per 10 ares, evaluated on the 21st day after application
Source text: as §5

| SMILES | Herbicidal effects Ch |
| --- | --- |
| C#CCOc1cc(Cl)cc(F)c1-c1ccc(C(F)(F)F)n(C)c1=O [1′-4] | 5 |

System: rice flatsedge (Ci)
Experiment: as above
Type: in vivo
Conditions: 100 g of the active ingredient per 10 ares, evaluated on the 21st day after application
Source text: as §5

| SMILES | Herbicidal effects Ci |
| --- | --- |
| C#CCOc1cc(Cl)cc(F)c1-c1ccc(C(F)(F)F)n(C)c1=O [1′-4] | 5 |

System: pale smartweed (Po)
Experiment: as above
Type: in vivo
Conditions: 100 g of the active ingredient per 10 ares, evaluated on the 21st day after application
Source text: as §5

| SMILES | Herbicidal effects Po |
| --- | --- |
| C#CCOc1cc(Cl)cc(F)c1-c1ccc(C(F)(F)F)n(C)c1=O [1′-4] | 5 |

System: corn (Ze)
Experiment: Test Example 7: crop plant selectivity by upland field soil treatment (corn), phytotoxicity
Type: in vivo
Parameters: scale not given here
Conditions: dose 6.3 g ai/10a, 21st day after application
Description: as §1, §2

| SMILES | Phytotoxicity Ze |
| --- | --- |
| C#CCOc1cc(Cl)cc(F)c1-c1ccc(C(F)(F)F)n(C)c1=O [1′-4] | 1 |

System: wheat (Tr)
Experiment: Test Example 5: crop plant selectivity by upland field soil treatment (wheat), phytotoxicity
Type: in vivo
Parameters: scale not given here
Conditions: dose 6.3 g ai/10a, 21st day after application
Description: as §1
In a plastic pot (surface area: 600 cm^2) filled with sand, wheat (Tr), Diaitaria ciliaris (Di), green foxtail (Se), pale smartweed (Po), slender amaranth (Am), common lambsquarters (Ch) and China jute (Ab) were sown and covered with soil. […] The plants were then cultured in a green house, and the evaluation of the herbicidal effects and phytotoxicity was conducted on the 21st day after the application in accordance with the standards as identified in Table 47. Symbol—represents “not tested”.

| SMILES | Phytotoxicity Tr |
| --- | --- |
| C#CCOc1cc(Cl)cc(F)c1-c1ccc(C(F)(F)F)n(C)c1=O [1′-4] | 1 |
